Data taken from patent publication US10883996B2, “Methods of identifying signaling modulators of the trimeric TNFa” (UCB BIOPHARMA SRL, priority 2015, dated 2021).
“Also recorded” adds a separate entry of the source.

Target: T1, TNFα trimer / TNFR1 (Homo sapiens, UniProt P01375)
T1 construct: human TNFα residues V77-L233 followed by two additional repeats; human TNFα residues D86-L233 linked together by Ser-Gly-Ser
Experiment: Analytical size exclusion chromatography of TNFα/TNFR1/compound complexes, protocol 2
Format: binding
Details: compound 200 μM (1:10 trimers:compound); 3.5 fold excess of receptors
Description: Size exclusion chromatography was used to determine the number of TNFR1 receptors bound to TNFα in the absence or presence of different compounds. Compound (2) was tested under the conditions described in protocol 1 below. Compound (5) was tested as described in protocol 2.
Compound (5) was added to 20 μM of TNFα trimer at a final concentration of 200 μM (ratio of 1:10 trimers:compound) with DMSO concentration held constant at 2.0%. The sample of TNFα and compound were incubated overnight at a temperature of 4° C. Receptors at a final concentration of 35 μM were added to 10 μM trimer-compound complex (3.5 fold excess of receptors over the trimer-compound complex). The final concentration of DMSO was 1.0%. The mixture was incubated for 1 hour at 22° C.
The conditions for analytical size exclusion using HPLC were as follows: injection volume: 50 μl; Superdex 200HR 10/300, L×I.D. 30 cm×10 mm column, 13-15 μm particle size; and a buffer of 10 mM HEPES, pH 7.5, 150 mM NaCl.
The TNFα was a single polypeptide chain of trimeric human TNFα composed of human TNFα residues V77-L233 followed by two additional repeats of human TNFα residues D86-L233 linked together by Ser-Gly-Ser (sequences are based on UniProt […]). Human TNFR1 was (V43-N184)(N54D, C182S) based on sequence UniProt P19438. […]

T1 sequence (P01375 with tags, fused parts or gaps): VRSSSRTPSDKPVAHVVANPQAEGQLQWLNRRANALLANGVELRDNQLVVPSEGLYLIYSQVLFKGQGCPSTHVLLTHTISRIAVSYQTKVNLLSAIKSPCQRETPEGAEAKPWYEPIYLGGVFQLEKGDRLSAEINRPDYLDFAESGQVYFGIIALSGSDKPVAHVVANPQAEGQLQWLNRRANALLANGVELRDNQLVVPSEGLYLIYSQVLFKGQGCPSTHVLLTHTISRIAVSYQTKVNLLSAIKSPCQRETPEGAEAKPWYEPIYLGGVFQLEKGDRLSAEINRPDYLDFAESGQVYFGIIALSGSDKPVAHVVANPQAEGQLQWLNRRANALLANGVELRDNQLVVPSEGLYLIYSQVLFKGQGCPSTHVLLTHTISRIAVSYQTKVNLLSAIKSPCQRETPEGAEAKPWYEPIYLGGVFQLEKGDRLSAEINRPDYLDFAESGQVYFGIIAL

Cc1nc2cc(F)c(-c3cnc(N4CC(O)(C(F)(F)F)C4)nc3)cn2c1[C@@H](O)c1ccccc1OC(F)F (single isomer, unassigned) [compound (5)]
number of receptors binding per trimer (SEC peak position vs mutant TNFα controls): a mixture of two receptors and one receptor; also recorded: moved closer to 1 receptor bound
